# A melting point compilation (Tetko et al.; mined from patent text by program, amines drawn as free bases though some values may be those of a salt)
row,melting point,Compound
1,154 to 156 °C,CCc1cccc2c3c([nH]c12)C(CC)(CC(=O)OC)OCC3NC=O (configuration not stated)
2,> 300 °C,CC(=O)Nc1cc(-c2ccncc2)c[nH]c1=O
3,197 to 199 °C,NC(=O)Cc1nc(C(=O)c2ccc(F)cc2)no1
4,96 to 98 °C,Cc1cccc(CCCCCCCCC(=O)Cl)c1
5,204 °C,O=C(O)CCC(F)(F)C(F)(F)CCC(=O)O
6,192 to 194 °C,CC(C)[C@H](NC(=O)c1ccc2ccccc2n1)C(=O)NC(Cc1ccccc1)C(O)CNCC(O)C(Cc1ccccc1)NC(=O)OC(C)(C)C (some centres not stated)
7,45 to 46 °C,O=C(O)C(F)(CCC(F)(F)C(F)(F)C(F)(F)C(F)(F)F)C(F)(F)F (configuration not stated)
8,160 to 162 °C,CN1C(=O)C(=O)c2cc(I)ccc21
9,36 to 38 °C,N#Cc1ccc(C(F)(F)F)cn1
10,94 °C,O=c1cc(COC2CCCCO2)occ1O (configuration not stated)
11,265 to 268 °C,CCOC(=O)C(O)C1OC(n2cnc3c(N)ncnc32)C(O)C1O (configuration not stated)
12,141 to 142 °C,N#CN=C(Cc1ccccc1F)NC1CCc2ccccc21 (configuration not stated)
13,146 to 148 °C,COc1nc(NC(=O)NS(=O)(=O)c2ccsc2C(=O)C2CC2)nc(OC)n1
14,166 to 167 °C,O=C(O)CCc1cn(Cc2ccc(OCc3ccc4ccccc4n3)nc2)nc1-c1ccccc1
15,52 to 54 °C,C=C(C)Cn1ncc(Cl)c(Cl)c1=O
16,210 to 212 °C,COC(=O)CNc1cccc2c1C(=O)N(C1CCC(=O)NC1=O)C2=O (configuration not stated)
17,291 to 293 °C,CCC(=O)Nc1nc(-c2cc(C)cc(C)c2)c(-c2ccncc2)s1
18,81 to 86 °C,CCOC(=O)c1[nH]nc(C)c1[N+](=O)[O-]
19,159 to 160 °C,CC(C)(C)OC(=O)NC(Cc1cnc2ccccc2c1)C(=O)O (configuration not stated)
20,185 to 186 °C,N#Cc1ccc2sc(CBr)nc2c1
21,184 °C,N#Cc1cccc(C2=Nc3ccc(C#CC4=CCNCC4)cc3NC(=O)C2)c1
22,126 to 128 °C,O=C(CCCCN1CCC(Cc2ccccc2)CC1)c1ccc2c(c1)-c1ccc(C(=O)CCCCN3CCC(Cc4ccccc4)CC3)c3cccc-2c13
23,110 to 113 °C,CS(=O)(=O)Cc1cccc(C(F)(F)F)c1[N+](=O)[O-]
24,127 to 128 °C,CC(=O)Nc1cc(F)ccc1C
25,210 to 212 °C,O=C(O)Cc1c(C(=O)c2cc(CO)ccn2)[nH]c2cc(Cl)ccc12
26,71 °C,CC(=O)c1ccc(S)cc1
27,218 to 220 °C,CCOC(=O)c1ncn2c1c(=O)n(C)c1ccccc12

row,melting point,Compound
1,150 to 152 °C,O=C1CCN(c2ccccc2)C(=O)C1=C1SC=CS1
2,149 to 151 °C,CCOC(=O)c1cc(-c2cc(C)on2)[nH]n1
3,153 to 155 °C,CCCCCCCCCCn1c(=S)nc2cc(Cl)ccn2c1=S
4,59 to 61 °C,CCOC(=O)c1c(C)nn(-c2ccccc2N)c1C
5,250 to 252 °C,Cc1c(-c2ccncc2)[nH]c(-c2ccncc2)c1C(C)O (configuration not stated)
6,154 to 155 °C,CCNc1cccc(-c2ccnc3c(C(=O)c4cccs4)cnn23)c1
7,110 to 111 °C,CC(C(=O)O)c1ccc(-c2ccccc2F)c(O)c1 (configuration not stated)
8,168 °C,CCOC(=O)c1ncn2c1CN(Cc1ccc(OC)cc1OC)C(=O)c1sccc1-2
9,195 to 196 °C,CCOC(=O)c1c(OCC)nsc1NC(=O)NC
10,247 to 248 °C,Nc1nc2cccnc2c2c1nc(CO)n2Cc1cc(-c2ccc(F)cc2)no1
11,168 to 171 °C,CCC1=Nc2ccc(OCCN3C(=O)c4ccccc4C3=O)cc2C(=O)C1
12,112 °C,CCCCOc1ccc(S(=O)(=O)C2(C(=O)NO)CCN(Cc3ccc(F)cc3)CC2)cc1
13,167 °C,CC(=O)OC1CSC(Oc2cnccc2C#N)C(OC(C)=O)C1OC(C)=O (configuration not stated)
14,245 to 246 °C,O=Cc1ccc2nc3c(cc2c1)-c1cccc2cccc-3c12
15,49 to 54 °C,CCCCn1nc(C)c(C(=O)OC)c1Cc1ccc(-c2ccccc2S(N)(=O)=O)cc1
16,256 °C,CN1CCN(C(=O)C(=O)Nc2cc(C#N)ccc2O)CC1
17,204 °C,CCOC(=O)N1CCC(NC2(c3ccccc3Cl)C(=O)Nc3ccc(Cl)cc32)CC1 (configuration not stated)
18,160 to 162 °C,COc1ccccc1OCC1(COc2ccccc2OC)NC(C(=O)O)CS1 (configuration not stated)
19,131 to 133 °C,CC(c1ccc(-c2ccccc2F)cc1)S(=O)CC(=O)N(C)C (configuration not stated)
20,232 to 234 °C,Cc1nnc2nc(-c3cccc(C(F)(F)F)c3)ccn12
21,244 °C,O=[N+]([O-])c1cc2c(Nc3ccc(F)c(Cl)c3)ncnc2cc1O[C@@H]1CCOC1
22,240 to 242 °C,CCc1c(C(=O)O)oc2ccc(Br)cc12
23,65 to 68 °C,CCC1Nc2c(C)cccc2-n2cccc21 (configuration not stated)
24,282 to 283 °C,Cc1cccc2nc(NC(=O)c3ccc(C(C)(C)C(=O)O)cc3)cn12
25,255 to 256 °C,O=c1[nH]c(=Cc2ccc(OCc3ccccc3)cn2)c(=O)[nH]c1=Cc1ccc2c(c1)OCO2
26,74 to 75 °C,CCOC(=O)c1ccc(Sc2cc3c(cc2C)C(C)(C)CCC3(C)C)cc1O
27,212 to 214 °C,N#Cc1ccc2c(c1)C(=O)NC(C(Cl)(Cl)Cl)O2 (configuration not stated)

row,melting point,Compound
1,50 to 52 °C,CCCCCCOc1c(C=O)ccc2c1C=CC(C=O)(OCCCCCC)C2 (configuration not stated)
2,157 to 159 °C,Cc1ccnc2c(Oc3ccc(N)cc3)cccc12
3,54 to 55 °C,CC(C)COC(=O)c1ccc(N)cc1N
4,120 to 121 °C,O=C(C=Cc1cccc(Cl)c1)C=Cc1cccc(Cl)c1
5,125 to 127 °C,CC1(C)NC2C(=O)N(C(O)C(=O)OCC(Cl)(Cl)Cl)C2S1 (configuration not stated)
6,200 °C,CCOC(=O)Nc1ccc(C(=O)Nc2ccc3ccc(OC)nc3n2)cc1
7,124 to 126 °C,O=C(CN1CCN(c2ncccn2)CC1)c1ccc(-c2cccc(C(F)(F)F)c2)nc1
8,76 to 77 °C,Cc1c(C)n2c3c(cccc13)CCc1ccccc1-2
9,187 °C,FC(F)(F)CNc1ccc2c(c1)N1CCCN=C1S2
10,175 to 176 °C,CCN(CC)C(=O)Cc1ccc(NC(=O)/C=C/c2cnn(C)c2-c2ccc(F)cc2)cc1
11,182 to 183 °C,COC(=O)COc1ccc2cc(CNC(=O)c3cc(-c4ccc(Cl)cc4)oc3C(F)(F)F)ccc2c1
12,95 to 96 °C,CCOC(=O)c1cc(Cl)nc(SCc2ccc3ccccc3c2)n1
13,193 to 194 °C,c1cc(Cc2cc3ccccc3[nH]2)cc(-c2cc3ccccc3[nH]2)c1
14,218 °C,CC(=S)NCC1CN(c2ccc(N3CCC4(CC3)NC(=O)NC4=O)c(F)c2)C(=O)O1 (configuration not stated)
15,177 °C,O=S(=O)(Cc1ccc(Cl)c(Cl)c1)Cc1ccc(Cl)c(Cl)c1
16,235 to 240 °C,CCOC(=O)c1ccc(-c2nc3cc4c(cc3[nH]2)NC(=O)C4(C)C)c(OC)c1
17,79 to 82 °C,CCCN(CCO)C(=O)c1ccc(C(=O)N2CCN(c3ncccc3NC(C)C)CC2)cc1
18,250 to 251 °C,O=c1ccc(-c2ccc3c(c2)CCN(C2CCC2)CC3)n[nH]1
19,130 to 135 °C,CC1(C)C(=O)Nc2cc3[nH]c(CCC(=O)O)nc3cc21
20,93 to 94 °C,COc1ccc(CC(=O)O)cc1C(C)(C)C
21,151 to 159 °C,OCC1CCC2=C(Cc3ccccc32)C1CN1CCCCC1CO (configuration not stated)
22,50 to 51 °C,CCCCCN1C(=O)C(=O)c2ccccc21
23,205 to 206 °C,CCCC1=C(C(=O)OCC)C(c2cccc(OC)c2OC)c2c[nH]nc2N1 (configuration not stated)
24,201 to 203 °C,O=C(O)C1=CCCCC1C(=O)O (configuration not stated)
25,300 °C,COc1ccc(N2CCN(c3ccc(NC(=O)NN)cc3)CC2)cc1
26,105 to 109 °C,O=CNC(O)C(Cl)(Cl)CCl (configuration not stated)
27,107 to 109 °C,CC(C)(C)OC(=O)NCCC[C@@H](CO)NC(=O)OCC1c2ccccc2-c2ccccc21

row,melting point,Compound
1,108 to 109 °C,Nc1ncnn1C(=S)NCCCCCO
2,122 to 123 °C,O=C(Nc1cc(C2OCCCO2)ccc1O)c1ccccc1OCCCCc1ccccc1
3,116 to 118 °C,CSC(=NC(=O)N(C)C)NC(=O)N(C)C
4,65 to 66 °C,C#CC(OC(=O)C1CC1)c1ccc2ccccc2c1 (configuration not stated)
5,72 to 74 °C,CCCCC1OC(=O)c2cc(NC(C)C)ccc21 (configuration not stated)
6,127 °C,c1ccc(C2(Cn3cncn3)OCCO2)cc1
7,246 °C,CC(=O)N[C@@H]1CCN(S(=O)(=O)c2ccc(Cl)c(COc3cccc4c(-n5ccnc5)cc(C)nc34)c2Cl)C1
8,165 to 166 °C,COc1ccc(-c2nc(CCO)nc3cc(OC)c(OC)cc23)cc1OC
9,78 to 80 °C,CCOC(=O)Nn1cccc1C(=O)c1ccccc1F
10,168 to 170 °C,O=S(=O)(O)NCc1cc(I)cc(I)c1O
11,175 to 177 °C,CC(C)c1ccccc1NC(=N)Nc1cccc2ccccc12
12,264 °C,CCCCNc1cc(C(=O)O)cc(S(N)(=O)=O)c1Oc1ccc(N)cc1
13,100 to 102 °C,Cc1cc(C)c(C(C#N)c2nc(C)nc(Cl)c2C)c(C)c1 (configuration not stated)
14,98 to 100 °C,O=C(NCCCCCCNC(=O)OC1CCCCC1)OC1CCCCC1
15,86 to 86.5 °C,CCOC(=O)C(Cc1ccccc1CCBr)(NC(C)=O)C(=O)OCC
16,125 to 130 °C,Brc1ccc(-c2coc3c2ccc2ccccc23)cc1
17,60 to 61 °C,CCCCc1ccc(CCCCC(NC(C)=O)(C(=O)OCC)C(=O)OCC)cc1
18,94 to 96 °C,Cc1nc2c(s1)C(=O)C=C(NCCCN(C)CCCNC1=CC(=O)c3sc(C)nc3C1=O)C2=O
19,208 to 210 °C,COCCOc1ccc(-c2cncc(C#N)c2Nc2ccc3[nH]ccc3c2C)cc1
20,154 to 157 °C,CC(C)(C)c1cc(N(C(=O)C=CC(=O)O)c2ccccc2)cc(C(C)(C)C)c1O
21,109 °C,CCc1ccc(OCc2ccc(CO)c(CO)c2)cc1-c1ccc(C(O)(CC)CC)cc1C(C)C
22,197 to 199 °C,CCCCC(=O)Oc1ccc(-c2nc(-c3ccc(Cl)cc3)c(CC(=O)O)s2)cc1
23,77 to 78 °C,CSc1nnc(SCc2ccc(Cl)cc2)s1
24,146 to 148 °C,Oc1ccc(-c2ccc(F)cc2F)cc1C12CC3CC(CC(C3)C1)C2

row,Compound,melting point
1,CC1CCC2(C)C(=CCC3C4CC(Br)C(=O)C4(C)CCC32)C1 (configuration not stated),186 to 188 °C
2,Clc1ccc2c(C3CCNCC3)n[nH]c2c1,174 to 176 °C
